Broadly, the inhibition is the percentage by which the read-out fell short of the control.

Experimental findings from article PMC11597050, “Virtual Screening, Molecular Dynamics, and Mechanism Study of Homeodomain-Interacting Protein Kinase 2 Inhibitor in Renal Fibroblasts” (Pharmaceuticals, 2024) are described below.

A value given as a limit tells only on which side of the number the result lay.

Assay type in all cases: biochemical
In experiment [1] the target is HIPK3 (Homo sapiens, UniProt Q9H422). Briefly: kinase inhibition assay, percent inhibition at […].
Sequence of HIPK3 (Q9H422 whole entry): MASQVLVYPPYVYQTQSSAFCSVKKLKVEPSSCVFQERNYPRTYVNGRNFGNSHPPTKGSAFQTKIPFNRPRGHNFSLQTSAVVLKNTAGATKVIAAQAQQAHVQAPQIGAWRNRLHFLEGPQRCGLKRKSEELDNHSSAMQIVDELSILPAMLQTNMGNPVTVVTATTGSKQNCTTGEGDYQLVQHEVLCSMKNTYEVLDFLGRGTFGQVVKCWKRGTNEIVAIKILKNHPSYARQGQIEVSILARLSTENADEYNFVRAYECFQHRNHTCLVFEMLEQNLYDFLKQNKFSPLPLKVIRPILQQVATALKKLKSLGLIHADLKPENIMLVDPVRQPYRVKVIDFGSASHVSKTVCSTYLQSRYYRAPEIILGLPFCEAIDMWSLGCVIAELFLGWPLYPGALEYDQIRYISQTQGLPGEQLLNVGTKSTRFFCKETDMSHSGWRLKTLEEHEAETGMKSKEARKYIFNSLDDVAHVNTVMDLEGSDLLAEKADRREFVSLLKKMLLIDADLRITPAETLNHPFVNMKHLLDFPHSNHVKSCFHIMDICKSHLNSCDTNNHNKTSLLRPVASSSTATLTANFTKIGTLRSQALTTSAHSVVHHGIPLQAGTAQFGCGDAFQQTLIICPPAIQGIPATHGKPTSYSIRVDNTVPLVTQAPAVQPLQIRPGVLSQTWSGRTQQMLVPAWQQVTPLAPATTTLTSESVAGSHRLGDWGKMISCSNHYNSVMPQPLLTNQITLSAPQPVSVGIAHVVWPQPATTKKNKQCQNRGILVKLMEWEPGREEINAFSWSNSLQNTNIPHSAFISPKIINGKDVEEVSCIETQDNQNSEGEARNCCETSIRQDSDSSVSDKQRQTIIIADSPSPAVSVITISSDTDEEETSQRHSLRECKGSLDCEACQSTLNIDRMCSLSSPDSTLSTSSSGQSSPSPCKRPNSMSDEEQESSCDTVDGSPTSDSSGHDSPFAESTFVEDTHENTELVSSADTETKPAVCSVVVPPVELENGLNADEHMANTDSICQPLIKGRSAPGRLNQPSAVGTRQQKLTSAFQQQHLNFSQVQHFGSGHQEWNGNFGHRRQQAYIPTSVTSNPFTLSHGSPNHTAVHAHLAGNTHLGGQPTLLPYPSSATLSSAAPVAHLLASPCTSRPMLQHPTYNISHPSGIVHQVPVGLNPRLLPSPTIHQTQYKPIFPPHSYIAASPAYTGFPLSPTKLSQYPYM
Experiment [2] deals with T1, HIPK2 (Homo sapiens, UniProt Q9H2X6). Nature of the experiment: ADP-Glo kinase assay (positive control drug). The settings on record: read-out: IC50 ± SEM (μM) / HIPK2. For orientation: ADP-Glo turns the ADP formed in a reaction into a luminescent signal.
T1 sequence (Q9H2X6 whole entry): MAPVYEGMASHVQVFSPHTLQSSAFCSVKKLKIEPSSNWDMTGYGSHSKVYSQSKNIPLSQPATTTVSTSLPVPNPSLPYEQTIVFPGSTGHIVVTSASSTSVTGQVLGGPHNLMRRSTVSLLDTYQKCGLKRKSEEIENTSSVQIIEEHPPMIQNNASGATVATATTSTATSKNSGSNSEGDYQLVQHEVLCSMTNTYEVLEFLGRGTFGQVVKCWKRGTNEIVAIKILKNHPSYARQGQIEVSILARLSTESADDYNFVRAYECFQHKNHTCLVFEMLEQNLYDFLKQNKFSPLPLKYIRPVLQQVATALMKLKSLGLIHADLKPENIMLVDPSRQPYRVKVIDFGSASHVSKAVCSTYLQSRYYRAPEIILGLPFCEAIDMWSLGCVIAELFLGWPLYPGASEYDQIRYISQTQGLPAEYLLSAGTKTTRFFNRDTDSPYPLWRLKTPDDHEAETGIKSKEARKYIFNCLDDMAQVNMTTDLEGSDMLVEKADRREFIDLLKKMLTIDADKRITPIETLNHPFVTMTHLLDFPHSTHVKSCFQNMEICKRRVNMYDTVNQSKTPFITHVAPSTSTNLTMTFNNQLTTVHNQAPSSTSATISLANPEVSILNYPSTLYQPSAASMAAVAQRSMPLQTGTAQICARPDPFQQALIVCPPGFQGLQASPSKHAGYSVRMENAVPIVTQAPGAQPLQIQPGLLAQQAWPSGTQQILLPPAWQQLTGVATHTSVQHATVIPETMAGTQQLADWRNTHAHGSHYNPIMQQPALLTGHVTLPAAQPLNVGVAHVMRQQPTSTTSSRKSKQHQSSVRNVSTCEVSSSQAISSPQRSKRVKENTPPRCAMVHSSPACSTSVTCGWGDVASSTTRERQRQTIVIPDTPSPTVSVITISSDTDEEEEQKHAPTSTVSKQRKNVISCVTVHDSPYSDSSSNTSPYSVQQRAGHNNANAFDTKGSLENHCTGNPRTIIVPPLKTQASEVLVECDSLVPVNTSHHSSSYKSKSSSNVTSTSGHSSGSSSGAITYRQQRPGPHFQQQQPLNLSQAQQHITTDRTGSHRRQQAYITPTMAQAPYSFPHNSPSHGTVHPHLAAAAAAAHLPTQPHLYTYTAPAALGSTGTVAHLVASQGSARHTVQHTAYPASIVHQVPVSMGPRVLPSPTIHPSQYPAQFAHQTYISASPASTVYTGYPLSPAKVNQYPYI
Experiment [3] deals with T1, HIPK2. Briefly: ADP-Glo kinase assay (MBP substrate). The settings on record: read-out: IC50 ± SEM (μM) / HIPK2.

Regarding `CCN1CCN(Cc2ccc(Nc3ncc(F)c(-c4cc(F)c5nc(C)n(C(C)C)c5c4)n3)nc2)CC1` [Abemaciclib], the inhibition at 10 µM in experiment [1] is over 90%. In addition, the IC50 in experiment [2] stood at 0.45 ± 0.12 µM.

Consider `CCCNc1ccc2ncc(-c3ccc4[nH]ncc4c3)n2n1` [T9521, 3-(1H-indazol-5-yl)-N-propylimidazo[1,2-b]pyridazin-6-amine], for which the IC50 in experiment [3] was 0.97 ± 0.04 µM.

With `O=C1Nc2ccc3ncsc3c2/C1=C/c1c[nH]cn1` [T16550], the IC50 in experiment [3] came to 3.58 ± 0.06 µM.
